# Where a name gives a salt, the structure may show the parent alone.
# Key:
# human H1 receptor = target: T1, human H1 receptor (Homo sapiens, UniProt P35367); experiment: Histamine H1 functional antagonist assay (FLIPR): antagonist pA2; format: cell-based
# T1 construct: expressed in transfected cells
# Protocol: The human H1 receptor is cloned using known procedures described in the literature [Biochem. Biophys. Res. Commun., 201(2):894 (1994)]. Chinese hamster ovary (CHO) cells stably expressing the human H1 receptor are generated according to known procedures described in the literature [Br. J. Pharmacol., 117(6):1071 (1996)].
# The histamine H1 receptor expressing CHO cells are seeded into non-coated black-walled clear bottom 96-well tissue culture plates as described above.
# Following overnight culture, growth medium is removed from each well, washed with 200 μl phosphate buffered saline (PBS) and is replaced with 50 μl loading dye (250 μM Brilliant Black, 1 μM Fluo-4 diluted in Tyrodes buffer+probenecid (145 mM NaCl, 2.5 mM KCl, 10 mM HEPES, 10 mM D-glucose, 1.2 mM MgCl2, 1.5 mM CaCl2, 2.5 mM probenecid, pH adjusted to 7.40 with NaOH 1.0 M)). Cells are incubated for 45 min at 37° C. The loading buffer is removed and the cells are washed as above, and 90 μl of Tyrodes buffer+probenecid is added to each well. 10 μl of test compound, diluted to the required concentration in Tyrodes buffer+probenecid (or 10 μl Tyrodes buffer+probenecid as a control) is added to each well and the plate is incubated for 30 min at 37° C., 5% CO2.
# The plates are then placed into a FLIPR™ (Molecular Devices, UK) to monitor cell fluorescence (λex=488 nm, λEM=540 nm) in the manner described in Sullivan et al., (In: Lambert DG (ed.), Calcium Signaling Protocols, New Jersey: Humana Press, 1999, 125-136) before and after the addition of 50 μl histamine over a concentration range of 1 mM-0.1 nM. The resultant concentration response curves are analysed by non-linear regression using a standard four parameter logistic equation to determine the histamine EC50, the concentration of histamine required to produce a response of 50% of the maximum response to histamine. The antagonist pA2 is calculated using the following standard equation: pA2=log(DR−1)−log[B] where DR=dose ratio, defined as EC50antagonist-treated/EC50control and [B]=concentration of antagonist.
# [1] = CNS penetration by bolus administration; format: in vivo, male CD Sprague Dawley rats; conditions: 1 mg/kg intravenously, blood and brain at 5 min post-dose
# Protocol: Compounds are dosed intravenously at a nominal dose level of 1 mg/kg to male CD Sprague Dawley rats. Compounds are formulated in 5% DMSO/45% PEG200/50% water. Blood samples are taken under terminal anaesthesia with isoflurane at 5 min post-dose and the brains are also removed for assessment of brain penetration. Blood samples are taken directly into heparinised tubes. Blood samples are prepared for analysis using protein precipitation and brain samples are prepared using extraction of drug from brain by homogenisation and subsequent protein precipitation. The concentration of parent drug in blood and brain extracts is determined by quantitative LC-MS/MS analysis using compound-specific mass transitions.
# T1 sequence (P35367 whole entry): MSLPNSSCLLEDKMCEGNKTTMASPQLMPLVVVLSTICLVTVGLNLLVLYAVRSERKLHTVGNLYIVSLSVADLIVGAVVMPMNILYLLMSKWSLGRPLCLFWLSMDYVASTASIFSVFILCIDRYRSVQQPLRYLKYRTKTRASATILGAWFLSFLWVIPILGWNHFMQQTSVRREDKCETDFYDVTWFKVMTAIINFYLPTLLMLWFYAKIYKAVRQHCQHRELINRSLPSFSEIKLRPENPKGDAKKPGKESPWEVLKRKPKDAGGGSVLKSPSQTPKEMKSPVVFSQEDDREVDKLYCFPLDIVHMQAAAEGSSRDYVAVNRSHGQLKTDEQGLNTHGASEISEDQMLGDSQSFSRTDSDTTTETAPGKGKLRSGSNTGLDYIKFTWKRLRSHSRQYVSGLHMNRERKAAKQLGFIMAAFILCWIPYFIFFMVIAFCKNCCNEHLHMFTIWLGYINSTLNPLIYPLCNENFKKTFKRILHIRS
compound,measurement,setting,value
"O=C(O)CCc1ccc2cc(Cc3ccccc3)cc(N3CCN(CCc4ccc(OCCCN5CCCCCC5)cc4)CC3)c2n1 [Example 1, 3-[8-{4-[2-(4-{[3-(Hexahydro-1H-azepin-1-yl)propyl]oxy}phenyl)ethyl]-1-piperazinyl}-6-(phenylmethyl)-2-quinolinyl]propanoic Acid, Formate Salt]",Kb,human H1 receptor,< 10 nM
same,CNS penetration,[1],low CNS penetration
"CCc1cc(N2CCN(CCc3ccc(OCCCN4CCCCCC4)cc3)CC2)c2nc(CCC(=O)O)ccc2c1 [Example 2, 3-(6-Ethyl-8-{4-[2-(4-{[3-(hexahydro-1H-azepin-1-yl)propyl]oxy}phenyl)ethyl]-1-piperazinyl}-2-quinolinyl)propanoic Acid, Formate Salt]",Kb,human H1 receptor,< 10 nM
same,CNS penetration,[1],low CNS penetration
"O=C(O)CCc1ccc2cccc(N3CCN(CCc4ccc(OCCCN5CCCCCC5)cc4)CC3)c2n1 [Example 3, 3-(8-{4-[2-(4-{[3-(Hexahydro-1H-azepin-1-yl)propyl]oxy}phenyl)ethyl]-1-piperazinyl}-2-quinolinyl)propanoic Acid, Formic Acid (1:2)]",Kb,human H1 receptor,< 10 nM
same,CNS penetration,[1],low CNS penetration
"O=C(O)CCc1cnc2c(N3CCN(CCc4ccc(OCCCN5CCCCCC5)cc4)CC3)cccc2c1 [Example 5, 3-(8-{4-[2-(4-{[3-(hexahydro-1H-azepin-1-yl)propyl]oxy}phenyl)ethyl]-1-piperazinyl}-3-quinolinyl)propanoic Acid, Formic Acid Salt]",Kb,human H1 receptor,< 100 nM
"CCCCc1cc(N2CCN(CCc3ccc(OCCCN4CCCCCC4)cc3)CC2)c2nc(CCC(=O)O)ccc2c1 [Example 6, 3-(6-Butyl-8-{4-[2-(4-{[3-(hexahydro-1H-azepin-1-yl)propyl]oxy}phenyl)ethyl]-1-piperazinyl}-2-quinolinyl)propanoic Acid, Formate Salt]",Kb,human H1 receptor,< 10 nM

# Source: US20090181950A1, “Histamine Receptor Antagonists Comprising an Azepin Core” (GLAXO GROUP LIMITED, priority 2006, published 2009)
